Values after ≈ are worked out from the molar mass of the structure shown. Peptide text beside a SMILES is read from it. Where only a bound is given, the exact number is not on record here.

This is an account of results in PMC5902452, “In silico optimization of a guava antimicrobial peptide enables combinatorial exploration for peptide design” (Nature Communications, 2018).

For data set [1], the system named is P. aeruginosa H1001 (fliC::luxCDABE). It counts as cell-based, Pseudomonas aeruginosa. To be noted: SPOT-synthesized unpurified crude peptide (~70% purity); bioluminescent engineered P. aeruginosa; BM2 medium; 4 h, 37 °C; reduction of luminescence; 200 to 3 μg mL−1 tested. The method, then:
A peptide array composed of 20 peptides (15 guavanins, 4 Pg-AMP1 fragments, and magainin 2) was designed and synthesized by Kinexus Bioinformatics Corporation (Vancouver, BC). Peptides were produced in a standard mass of 80 μg by using cellulose support in SPOT technology. The crude synthetic peptides were obtained from cellulose membrane discs that had already been treated with ammonia gas to release the peptides from the membrane. Peptides were then dissolved overnight in distilled water and subsequently evaluated for their biological activities, as described below.
The antimicrobial activity of the synthesized peptides was evaluated against an engineered luminescent P. aeruginosa H1001 (fliC::luxCDABE) strain in 96-well microplates. Aqueous solutions of peptides released from the cellulose spots were diluted twofold in BM2 medium [62 mM potassium phosphate buffer pH 7; 2 mM MgSO4; 10 μM FeSO4; 0.4% (wt/vol) glucose] down the eight wells of a 96-well plate, achieving a final volume of 25 μL in each well. Subsequently, 50 μL of overnight culture of P. aeruginosa H1001 (fliC::luxCDABE) were subcultured in 5 mL of fresh LB media and grown until they reached an OD600 of 0.4. This growing bacteria culture was then diluted 4:100 (v/v) into fresh BM2 media and 25 μL of this diluted bacterial culture was transferred to the microplate wells containing 25 μL of peptide solution. The final peptide concentrations tested ranged from 200 to 3 μg mL^−1. The plates were incubated for 4 h at 37 °C with constant shaking at 50 rpm. Luminescence was measured on a Tecan […]luor Plus Microplate Reader (Tecan US, Morrisville, NC). The antimicrobial activity was evaluated by the ability of the peptides to reduce the luminescence of P. aeruginosa-lux strain compared to untreated cells. The AMP magainin 2 and the carbapenem meropenem were used as positive controls and distilled water was used as a negative control.

Data set [2] relates to human erythrocytes. Briefly: Hemolytic assay. To be noted: SPOT-synthesized crude peptides; human red blood cells in NaCl 0.85%, 1 h, 37 °C; hemoglobin release at 546 nm; highest concentration 200 μg mL−1; 100% of hemolysis was not observed.
Protocol: Fresh human venous blood was collected from volunteers in Vacutainer collection tubes containing sodium heparin as an anticoagulant (BD Biosciences, Franklin Lakes, NJ). The blood was centrifuged applying 151 × g force (1500 rpm) and the serum was removed and the blood cells were replaced and washed three times with the same volume of sterile NaCl 0.85% solution. Concentrated red blood cells were diluted tenfold in NaCl 0.85% solution and then exposed at twofold dilutions of peptides for 1 h at 37 °C, at identical concentrations used for antimicrobial assays, in the ratio of 1:1 (v/v), achieving a final volume of 100 μL. The assay was carried out in 96-well polypropylene microtiter plates. The positive control wells contained 1% of Triton X-100, representing 100% cell lysis, and negative control wells contained sterile saline. Hemoglobin release was monitored chromogenically at 546 nm using a microplate reader.

Turning to `CC(C)[C@H](NC(=O)CNC(=O)[C@H](CCC(N)=O)NC(=O)CNC(=O)[C@@H](NC(=O)[C@@H]1CCCN1C(=O)[C@H](CCC(N)=O)NC(=O)CN)C(C)C)C(=O)N[C@@H](CCC(=O)O)C(=O)N[C@@H](CCCNC(=N)N)C(=O)N[C@@H](CO)C(=O)N[C@@H](Cc1c[nH]cn1)C(=O)N[C@@H](CC(=O)O)C(=O)N[C@@H](CC(=O)O)C(=O)N[C@@H](CC(N)=O)C(=O)N[C@@H](CCCNC(=N)N)C(=O)N[C@@H](CC(N)=O)C(=O)N[C@@H](CCC(N)=O)C(=O)N1CCC[C@H]1C(=O)N[C@@H](CCCNC(=N)N)C(N)=O` [Fragment 4 (hydrophobic moment)] (H-GQPVGQGVERSHDDNRNQPR-NH2), the MIC (in general, the smallest concentration in the dilution series that meets the test's criterion for growth inhibition) in data set [1] was greater than 200 mg/L. The Hemolysis in data set [2] was greater than 200 µg/mL.

`CSCC[C@H](NC(=O)[C@H](CCCNC(=N)N)NC(=O)[C@H](CO)NC(=O)[C@@H](N)CO)C(=O)N[C@@H](CCC(=O)O)C(=O)N[C@@H](CS)C(=O)N[C@@H](Cc1ccc(O)cc1)C(=O)N[C@@H](CCC(=O)O)C(=O)N[C@@H](CCC(N)=O)C(=O)N[C@@H](C)C(=O)N[C@@H](CCC(=O)O)C(=O)N[C@@H](CCCNC(=N)N)C(=O)N[C@@H](Cc1ccc(O)cc1)C(=O)NCC(=O)N[C@@H](Cc1ccc(O)cc1)C(=O)NCC(=O)NCC(=O)N[C@@H](Cc1ccc(O)cc1)C(=O)NCC(=O)NCC(N)=O` [Fragment 1 (α-helix)] (H-SSRMECYEQAERYGYGGYGG-NH2) came in with an MIC in data set [1] greater than 200 mg/L. The same molecule gave a Hemolysis in data set [2] greater than 200 µg/mL.

In turn, `CC[C@H](C)[C@H](NC(=O)CNC(=O)[C@H](CCCNC(=N)N)NC(=O)[C@H](CC(N)=O)NC(=O)[C@H](Cc1ccccc1)NC(=O)[C@H](CO)NC(=O)[C@H](CCCNC(=N)N)NC(=O)[C@H](CO)NC(=O)[C@H](C)NC(=O)[C@H](CCC(N)=O)NC(=O)[C@H](CCCCN)NC(=O)[C@H](Cc1ccc(O)cc1)NC(=O)[C@H](CC(C)C)NC(=O)[C@H](CCC(=O)O)NC(=O)[C@H](CCSC)NC(=O)[C@@H](NC(=O)[C@H](CO)NC(=O)[C@@H](N)CCCNC(=N)N)[C@@H](C)CC)C(=O)N[C@@H](CCCNC(=N)N)C(=O)N[C@@H](CCCNC(=N)N)C(N)=O` [Guavanin 6] (H-RSIMELYKQASRSFNRGIRR-NH2) returned an MIC in data set [1] of 100 mg/L (≈ 40.5 µM). This molecule displayed a Hemolysis in data set [2] greater than 200 µg/mL.

`CSCC[C@H](NC(=O)[C@H](Cc1ccc(O)cc1)NC(=O)[C@H](CCC(N)=O)NC(=O)[C@@H](N)CCCNC(=N)N)C(=O)N[C@@H](CCCNC(=N)N)C(=O)N[C@@H](Cc1ccc(O)cc1)C(=O)N[C@@H](CC(C)C)C(=O)N[C@@H](CCC(=O)O)C(=O)N[C@@H](CCC(N)=O)C(=O)N[C@@H](C)C(=O)N[C@@H](CCC(=O)O)C(=O)N[C@@H](CCCNC(=N)N)C(=O)N[C@@H](Cc1ccc(O)cc1)C(=O)N[C@H](C(=O)N[C@@H](CC(N)=O)C(=O)N[C@@H](CCCNC(=N)N)C(=O)N[C@@H](CC(N)=O)C(=O)N[C@@H](CC(C)C)C(=O)N[C@@H](CCCNC(=N)N)C(=O)N[C@@H](CCCNC(=N)N)C(N)=O)C(C)C` [Guavanin 4] (H-RQYMRYLEQAERYVNRNLRR-NH2): in data set [1], the minimum inhibitory concentration (MIC) came to 100 mg/L (≈ 36.8 µM). The same molecule returned a Hemolysis in data set [2] greater than 200 µg/mL.

The molecule `CC[C@H](C)[C@H](NC(=O)[C@H](C)NC(=O)[C@H](CCC(N)=O)NC(=O)[C@H](CCC(=O)O)NC(=O)[C@H](Cc1ccc(O)cc1)NC(=O)[C@H](CC(C)C)NC(=O)[C@H](CCC(=O)O)NC(=O)[C@H](CCSC)NC(=O)[C@H](CC(C)C)NC(=O)[C@H](CCCCN)NC(=O)[C@@H](N)CCCNC(=N)N)C(=O)N[C@@H](CCCNC(=N)N)C(=O)N[C@@H](Cc1ccc(O)cc1)C(=O)NCC(=O)N[C@@H](CCCCN)C(=O)N[C@@H](CCCNC(=N)N)C(=O)N[C@@H](CO)C(=O)N[C@@H](Cc1ccc(O)cc1)C(=O)N[C@@H](CCCNC(=N)N)C(=O)N[C@@H](CCCNC(=N)N)C(N)=O` [Guavanin 12] (H-RKLMELYEQAIRYGKRSYRR-NH2) displayed an MIC in data set [1] of 25 mg/L (≈ 9.56 µM). The molecule also had a Hemolysis in data set [2] greater than 200 µg/mL.

With `CC[C@H](C)[C@H](NC(=O)[C@H](CCCNC(=N)N)NC(=O)[C@H](CCC(=O)O)NC(=O)[C@H](Cc1ccc(O)cc1)NC(=O)[C@H](CCC(N)=O)NC(=O)[C@H](CCCCN)NC(=O)[C@H](CCSC)NC(=O)CNC(=O)[C@H](CCCNC(=N)N)NC(=O)[C@@H](N)CCCNC(=N)N)C(=O)N[C@@H](CO)C(=O)N[C@@H](CCCNC(=N)N)C(=O)N[C@@H](CC(=O)O)C(=O)N[C@@H](C)C(=O)N[C@@H](CC(N)=O)C(=O)N[C@@H](CCCNC(=N)N)C(=O)N[C@@H](CO)C(=O)N[C@@H](Cc1ccc(O)cc1)C(=O)N[C@@H](CCCNC(=N)N)C(=O)N[C@@H](CCCNC(=N)N)C(N)=O` [Guavanin 1] (H-RRGMKQYERISRDANRSYRR-NH2), the MIC in data set [1] was found to be 200 mg/L (≈ 77 µM). Besides, the Hemolysis in data set [2] is greater than 200 µg/mL.

`CSCC[C@H](NC(=O)[C@H](Cc1ccc(O)cc1)NC(=O)[C@H](C)NC(=O)[C@@H](N)CCCNC(=N)N)C(=O)N[C@@H](CCC(=O)O)C(=O)N[C@@H](C)C(=O)N[C@@H](CC(C)C)C(=O)N[C@@H](CCCNC(=N)N)C(=O)N[C@@H](CCC(N)=O)C(=O)N[C@@H](C)C(=O)N[C@@H](CCC(=O)O)C(=O)N[C@@H](CCCNC(=N)N)C(=O)N[C@@H](CC(C)C)C(=O)NCC(=O)N[C@@H](CC(N)=O)C(=O)N[C@@H](CCCNC(=N)N)C(=O)N[C@H](C(=O)N[C@@H](C)C(=O)N[C@@H](CCCNC(=N)N)C(=O)N[C@@H](CCCNC(=N)N)C(N)=O)[C@@H](C)O` [Guavanin 9] (H-RAYMEALRQAERLGNRTARR-NH2) yielded a minimum inhibitory concentration (MIC) in data set [1] greater than 200 mg/L. Also, the Hemolysis in data set [2] was greater than 200 µg/mL.

As to `N=C(N)NCCC[C@H](NC(=O)CNC(=O)[C@H](CO)NC(=O)CNC(=O)[C@H](Cc1ccc(O)cc1)NC(=O)CNC(=O)CNC(=O)CNC(=O)[C@H](Cc1ccc(O)cc1)NC(=O)[C@H](CCCNC(=N)N)NC(=O)CNC(=O)CNC(=O)CNC(=O)[C@H](Cc1ccc(O)cc1)NC(=O)CNC(=O)CNC(=O)[C@H](Cc1ccc(O)cc1)NC(=O)CNC(=O)[C@H](Cc1ccc(O)cc1)NC(=O)[C@@H](N)CCCNC(=N)N)C(N)=O` [Fragment 2 (net charge)] (H-RYGYGGYGGGRYGGGYGSGR-NH2), the MIC in data set [1] worked out at 200 mg/L (≈ 99.2 µM). In data set [2], this molecule had a Hemolysis of 100 µg/mL.

The molecule `CC[C@H](C)[C@H](NC(=O)[C@H](C)NC(=O)[C@H](CCC(=O)O)NC(=O)[C@H](CCC(=O)O)NC(=O)[C@H](Cc1ccc(O)cc1)NC(=O)[C@H](CCC(N)=O)NC(=O)[C@H](CCCNC(=N)N)NC(=O)[C@H](CCSC)NC(=O)[C@H](Cc1ccc(O)cc1)NC(=O)[C@H](CCCCN)NC(=O)[C@@H](N)CCCNC(=N)N)C(=O)N[C@@H](CCCNC(=N)N)C(=O)N[C@@H](CC(=O)O)C(=O)NCC(=O)N[C@@H](CC(N)=O)C(=O)N[C@@H](CCCNC(=N)N)C(=O)N[C@@H](CO)C(=O)N[C@H](C(=O)N[C@@H](CCCNC(=N)N)C(=O)N[C@@H](CCCNC(=N)N)C(N)=O)[C@@H](C)CC` [Guavanin 3] (H-RKYMRQYEEAIRDGNRSIRR-NH2) registered an MIC in data set [1] greater than 200 mg/L. This molecule registered a Hemolysis in data set [2] greater than 200 µg/mL.

The molecule `CC[C@H](C)[C@H](NC(=O)[C@H](CC(C)C)NC(=O)[C@H](CCC(=O)O)NC(=O)[C@H](CCSC)NC(=O)[C@H](CC(C)C)NC(=O)[C@H](CCC(N)=O)NC(=O)[C@@H](N)CCCNC(=N)N)C(=O)N[C@@H](CCC(=O)O)C(=O)N[C@@H](CCC(N)=O)C(=O)N[C@@H](C)C(=O)N[C@@H](CCC(=O)O)C(=O)N[C@@H](CCCNC(=N)N)C(=O)N[C@@H](Cc1ccc(O)cc1)C(=O)NCC(=O)N[C@@H](CC(N)=O)C(=O)N[C@@H](CCCNC(=N)N)C(=O)N[C@@H](Cc1ccccc1)C(=O)N[C@@H](Cc1ccc(O)cc1)C(=O)N[C@@H](CCCNC(=N)N)C(=O)N[C@@H](CCCNC(=N)N)C(N)=O` [Guavanin 11] (H-RQLMELIEQAERYGNRFYRR-NH2) came in with an MIC in data set [1] greater than 200 mg/L. The Hemolysis in data set [2] is greater than 200 µg/mL.
